This note sets out measurements from US6967196B1, “Sulfonamide compounds and uses thereof” (Bristol-Myers Squibb Company, priority 1999, dated 2005).

pIC50: −log10 of the molar value. Structures can show the parent of a compound that is named as a salt.

The test system of the first test is amyloid β production in transfected H4 (human neuroglioma) cells stably expressing APP constructs. Nature of the test: In vitro cell-based assay of inhibitors of amyloid β production (ELISA). The conditions noted are these: Homo sapiens, 16 h, transfected H4 cells stably expressing APP; approximately 16 hours incubation; amyloid β in medium by ELISA; read-out: ACTIVITY (IC50, inhibition of amyloid β production). In short, it runs like this:
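Sandwich ELISA read-out: Aβ in conditioned medium captured via C-terminal epitope mAb, detected with N-terminus-specific rabbit polyclonal, quantified from a standard curve. Compounds 10-100 μM, ~16 h exposure. Active = ≥50% inhibition vs control without significant cytotoxicity; dose-response follows.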
In general terms: An ELISA detects its analyte on a solid surface through an enzyme-linked reagent.
Consider `O=C(c1ccc(F)cc1)N1CCCCC1CCOc1ccccc1CN(c1cc(F)ccc1F)S(=O)(=O)c1ccc(Cl)cc1` (stereo not drawn) [Example 946, 4-chloro-N-(2,5-difluorophenyl)-N-(2-{2-[1-(4-fluorobenzoyl)-2-piperidinyl]ethoxy}benzyl)benzenesulfonamide], for which the pIC50 was less than 6.30.

Regarding `CC(C)CCCN(Cc1ccccc1OCCCN1CCCCC1)S(=O)(=O)c1ccc(Cl)cc1` [Example 951, 4-chloro-N-(4-methylpentyl)-N-{2-[3-(1-piperidinyl)propoxy]benzyl}benzenesulfonamide hydrochloride], the negative logarithm of the IC50 (pIC50) was less than 6.30.

For `CSc1cccc(N(Cc2ccccc2OCCCN2CCCCC2)S(=O)(=O)c2ccc(Cl)cc2)c1` [Example 952, 4-chloro-N-[3-(methylsulfanyl)phenyl]N-{2-[3-(1-piperidinyl)propoxy]benzyl}benzenesulfonamide hydrochloride], the negative-log IC50 (pIC50) was less than 6.30.

For `O=S(=O)(c1ccc(Cl)cc1)N(Cc1ccccc1OCCCN1CCCCC1)[C@H]1CC2CCC1C2` (stereo partly drawn) [Example 954, N-[(2S)-bicyclo[2.2.1]hept-2-yl]-4-chloro-N-{2-[3-(1-piperidinyl)propoxy]benzyl}benzenesulfonamide hydrochloride], the negative logarithm of the IC50 (pIC50) is less than 6.30.

Turning to `Cc1ccc(OCCCN2CCCCC2)c(CN(c2cc(F)ccc2F)S(=O)(=O)c2ccc(Cl)cc2)c1` [Example 957, 4-chloro-N-(2,5-difluorophenyl)-N-{5-methyl-2-[3-(1-piperidinyl)propoxy]benzyl}benzenesulfonamide hydrochloride], the negative-log IC50 (pIC50) is less than 6.30.

With `CN1CCCC1CCOc1ccccc1CN(c1ccccc1)S(=O)(=O)c1ccc(Cl)cc1` (stereo not drawn) [Example 962, 4-chloro-N-{2-[2-(1-methyl-2-pyrrolidinyl)ethoxy]benzyl}-N-phenylbenzenesulfonamide hydrochloride], the negative-log IC50 (pIC50) is less than 6.30.

As to `O=S(=O)(c1ccc(Cl)cc1)N(Cc1ccccc1OCCC1CCCN1)c1ccccc1` (stereo not drawn) [Example 963, 4-chloro-N-phenyl-N-{2-[2-(2-pyrrolidinyl)ethoxy]benzyl}benzenesulfonamide hydrochloride], the pIC50 is less than 6.30.

Regarding `O=S(=O)(c1ccc(Cl)cc1)N(Cc1cc(Cl)ccc1OCCCN1CCCCC1)c1ccccc1` [Example 964, 4-chloro-N-{5-chloro-2-[3-(1-piperidinyl)propoxy]benzyl}-N-phenylbenzenesulfonamide hydrochloride], the pIC50 is less than 6.30.

On to `CC1(O)CCN(CCCOc2ccccc2CN(c2ccccc2)S(=O)(=O)c2ccc(Cl)cc2)CC1` [Example 965, 4-chloro-N-{2-[3-(4-hydroxy-4-methyl-1-piperidinyl)propoxy]benzyl}-N-phenylbenzenesulfonamide hydrochloride], for which the negative logarithm of the IC50 (pIC50) was less than 6.30.

For `O=S(=O)(c1ccc(Cl)cc1)N(Cc1ccncc1)Cc1ccccc1OCCCN1CCCCC1` [Example 967, 4-chloro-N-{2-[3-(1-piperidinyl)propoxy]benzyl}-N-(4-pyridinylmethyl)benzenesulfonamide hydrochloride], the negative-log IC50 (pIC50) was less than 6.30.

In the case of `O=C1CCN(CCCOc2ccccc2CN(c2ccccc2)S(=O)(=O)c2ccc(Cl)cc2)CC1` [Example 968, 4-chloro-N-{2-[3-(4-oxo-1-piperidinyl)propoxy]benzyl}-N-phenylbenzenesulfonamide hydrochloride], the negative logarithm of the IC50 (pIC50) is less than 6.30.

Regarding `O=S(=O)(c1ccc(Cl)cc1)N(CCc1ccccc1OCCCN1CCCCC1)c1ccccc1` [Example 972, 4-chloro-N-phenyl-N-(2-{2-[3-(1-piperidinyl)propoxy]phenyl}ethyl)benzenesulfonamide hydrochloride], the pIC50 is less than 6.30.

Regarding `O=S(=O)(c1ccc(Cl)cc1)N(Cc1ccccc1C#CCCN1CCCCC1)c1ccccc1` [Example 973, 4-chloro-N-phenyl-N-{2-[4-(1-piperidinyl)-1-butynyl]benzyl}benzenesulfonamide], the pIC50 is less than 6.30.

`O=S(=O)(c1ccc(Cl)cc1)N(Cc1ccccc1OCCCN1CCCCC1)Cc1c(F)c(F)c(F)c(F)c1F` [Example 974, 4-chloro-N-(2,3,4,5,6-pentafluorobenzyl)-N-{2-[3-(1-piperidinyl)propoxy]benzyl}benzenesulfonamide hydrochloride]: the negative logarithm of the IC50 (pIC50) was less than 6.30.

Turning to `O=S(=O)(c1ccc(Cl)cc1)N(Cc1cc(Cl)ccc1O)c1ccccc1` [Example 975, 4-chloro-N-(5-chloro-2-hydroxybenzyl)-N-phenylbenzenesulfonamide], the pIC50 was less than 6.30.

With `O=S(=O)(c1ccc(Cl)cc1)N(Cc1ccccc1OCCCCCN1CCCCC1)c1ccccc1` [Example 976, 4-chloro-N-phenyl-N-(2-{[5-(1-piperidinyl)pentyl]oxy}benzyl)benzenesulfonamide hydrochloride], the pIC50 was less than 6.30.

Consider `O=S(=O)(c1ccc(Cl)cc1)N(Cc1ccccc1OCCCCN1CCCCC1)c1ccccc1` [Example 977, 4-chloro-N-phenyl-N-{2-[4-(1-piperidinyl)butoxy]benzyl}benzenesulfonamide hydrochloride], for which the negative logarithm of the IC50 (pIC50) was less than 6.30.

On to `O=S(=O)(c1ccc(Cl)cc1)N(Cc1ccccc1CCCCCN1CCCCC1)c1ccccc1` [Example 978, 4-chloro-N-phenyl-N-{2-[5-(1-piperidinyl)pentyl]benzyl}benzenesulfonamide hydrochloride], for which the negative-log IC50 (pIC50) is less than 6.30.

Take `O=S(=O)(c1ccc(Cl)cc1)N(Cc1ccccc1OCCCNC1CC1)c1ccccc1` [Example 979, 4-chloro-N-{2-[3-(cyclopropylamino)propoxy]benzyl}-N-phenylbenzenesulfonamide hydrochloride]: the pIC50 is less than 6.30.

`O=S(=O)(c1ccc(Cl)cc1)N(Cc1ccccc1OCCCSc1ccccc1)c1cc(F)ccc1F` [Example 982, 4-chloro-N-(2,5-difluorophenyl)-N-{2-[3-(phenylsulfanyl)propoxy]benzyl}benzenesulfonamide]: the negative-log IC50 (pIC50) is less than 6.30.

Consider `C=CCN(Cc1ccccc1OCCCN1CCCCC1)S(=O)(=O)c1ccc(Cl)cc1` [Example 985, N-allyl-4-chloro-N-{2-[3-(1-piperidinyl)propoxy]benzyl}benzenesulfonamide hydrochloride], for which the pIC50 was less than 6.30.

For the molecule `O=S(=O)(c1ccc(Cl)cc1)N(Cc1ccccc1OCCCN1CCCCC1)C1CCOCC1` [Example 986, 4-chloro-N-{2-[3-(1-piperidinyl)propoxy]benzyl}-N-tetrahydro-2H-pyran-4-ylbenzenesulfonamide hydrochloride], the negative-log IC50 (pIC50) was less than 6.30.

As for `O=S(=O)(c1ccc(Cl)cc1)N(Cc1ccccc1OCCCN1CCCCC1)c1ccc(Br)cc1` [Example 988, N-(4-bromophenyl)-4-chloro-N-{2-[3-(1-piperidinyl)propoxy]benzyl}benzenesulfonamide hydrochloride], the negative-log IC50 (pIC50) was less than 6.30.

For the molecule `O=S(=O)(c1ccc(Cl)cc1)N(Cc1cc(Cl)ccc1C#CCCN1CCCCC1)c1ccccc1` [Example 990, 4-chloro-N-{5-chloro-2-[4-(1-piperidinyl)-1-butynyl]benzyl}-N-phenylbenzenesulfonamide hydrochloride], the pIC50 is less than 6.30.

Still in this test, the particulars now being: transfected H4 cells stably expressing APP; approximately 16 hours incubation; amyloid β in medium by ELISA; hydrochloride; read-out: ACTIVITY (IC50, inhibition of amyloid β production).
In the case of `CCC[C@@H](C)N(Cc1ccccc1OCCCN1CCCCC1)S(=O)(=O)c1ccc(Cl)cc1` [Example 980, 4-chloro-N-[(1R)-1-methylbutyl]-N-{2-[3-(1-piperidinyl)propoxy]benzyl}benzenesulfonamide hydrochloride], the pIC50 was less than 6.30.

Staying with this test, now noted: transfected H4 cells stably expressing APP; approximately 16 hours incubation; amyloid β in medium by ELISA; read-out: ACTIVITY (IC50, inhibition of amyloid β production).
For `O=S1(=O)c2ccc(Cl)cc2-c2ccccc2N1Cc1ccccc1OCCCN1CCCCC1` [Example 948, 2-chloro-5-{2-[3-(1-piperidinyl)propoxy]benzyl}-6H-dibenzo]c,e][1,2]thiazine 5,5-dioxide hydrochloride], the pIC50 was less than 6.30.

As to `C=C(C)CN(Cc1ccccc1OCCCN1CCCCC1)S(=O)(=O)c1ccc(Cl)cc1` [Example 955, 4-chloro-N-(2-methyl-2-propenyl)-N-{2-[3-(1-piperidinyl)propoxy]benzyl}benzenesulfonamide hydrochoride], the pIC50 was less than 6.30.

For `O=S(=O)(c1ccc(Cl)cc1)N(CCc1cccc(OCCCN2CCCCC2)c1)c1ccccc1` [Example 956, 4-chloro-N-phenyl-N-(2-{3-[3-(1-piperidinyl)propoxy]phenyl}ethyl)benzeneslfonamide hydrochloride], the negative-log IC50 (pIC50) is less than 6.30.

Regarding `CN(CCCOc1ccccc1CN(c1cc(F)ccc1F)S(=O)(=O)c1ccc(Cl)cc1)C(=O)c1cc([N+](=O)[O-])cc([N+](=O)[O-])c1` [Example 958, N-{3-[2-({[(4-chlorophenyl)sulfonyl]-2,5-difluoroanilino}methyl)phenoxy]propyl}-N-methyl-3,5-dinitrobenzamide], the pIC50 was less than 6.30.

Take `O=S(=O)(c1ccc(Cl)cc1)N(Cc1ccccc1OCCCN1CCCCC1)[C@H]1CC2CCC1C2` (stereo partly drawn) [Example 969, N-{(2S)-bicyclo[2.2.1]hept-2-yl]-4-chloro-N-{2-[3-(1-piperidinyl)propoxy]benzyl}benzenesulfonamide hydrochloride]: the pIC50 was less than 6.30.

`O=S(=O)(c1ccc(Cl)cc1)N(Cc1ccccc1CCCCN1CCCCC1)c1ccccc1` [Example 981, 4-chloro-N-phenyl-N-{2-[4-(1-piperdinyl)butyl]benzyl}benzenesulfonamide hydrochloride]: the pIC50 is less than 6.30.

Turning to `O=S(=O)(c1ccc(Cl)cc1)N(Cc1ccccc1OCCCN1CCCCC1)CC1CC1` [Example 984, 4-chloro-N-(cyclopropylmethyl-N-{2-[3-(1-piperidinyl)propoxy]benzyl}benzenesulfonamide hydrochloride], the negative logarithm of the IC50 (pIC50) was less than 6.30.

Take `COC(=O)[C@H](c1ccccc1)N(c1cc(F)ccc1F)S(=O)(=O)c1ccc(Cl)cc1` [Example 987, methyl (2S)-1-{[(4-chlorophenyl)sulfonyl]-2,5-difluoroanilino}(phenyl)ethanoate]: the pIC50 is less than 6.30.

In general, pIC50 refers to the IC50 on a negative log10 scale, so that one unit is a factor of ten.
